Numbers after ± are expanded uncertainties.
Conditions: Crystal; DSC

- Triple point temperature: 471.65 ± 1.8 K
SMILES: O=C(c1cc(Cc2n[nH]c(=O)c3ccccc23)ccc1F)N1CCN(C(=O)C2CC2)CC1 [olaparib]
